Entries after “also recorded” stand apart in the source; their conditions may differ.
Assays:
[1] = cited from earlier work; for psychoactivity relative to THC: compared with Δ9-THC
[2] = cited from earlier work
[3] = Room temperature storage of marijuana biomass, Δ9-THC content; format: physicochemical; conditions: 8-month period, room temperature storage at RTI
Experimental: Under DEA Schedule I license (No. RC0288058), two 250-gram shipments of high potency, bulk marijuana biomass were requested from the National Institute of Drug Abuse (NIDA). Both shipments were provided by the Research Triangle Institute (RTI) International, Research Triangle Park, N.C. under contract with NIDA. The first batch (RTI Batch No. 8976-1001-26/University of Mississippi Batch No. 1182/1186) was received and logged in at Aphios on Dec. 17, 2002. This batch was measured by the University of Mississippi's Thad Cochran National Center for the Natural Products Research to have a Δ9-THC content of 8.98%. Table 1 lists the concentration of other cannabinoids per the provided Certificate of Analysis (Dec. 2, 2002). Table 1 also lists HPLC measurements of heat-treated biomass made by Aphios' chemists; the methods and data are detailed below. The biomass was stored in a locked safe at room temperature when not in use. All usage was recorded on a log sheet that was also stored in the same safe.
The second shipment, also from the same batch of high potency marijuana from the U. of Mississippi, was received and logged in at Aphios on Aug. 14, 2003. The second shipment was measured by RTI on Jul. 29, 2003 to have a Δ9-THC content of 6.12% by GLC analysis. […]

SMILES: CCCCCc1cc(O)c2c(c1)OC(C)(C)[C@@H]1CCC(CO)=C[C@@H]21 [11-OH-A-9-THC]
- psychoactivity relative to THC [1]: three times more psychoactive

SMILES: C=C(C)[C@@H]1CCC(C)=C[C@H]1c1c(O)cc(CCCCC)cc1O [CBD, cannabidiol]
- psychoactivity ([1]; in vivo): not psychoactive; also recorded: not psychotomimetic in pure form

SMILES: CCCCCc1cc(O)c2c(c1)OC(C)(C)[C@@H]1CCC(C)=C[C@@H]21 [Dronabinol]
- bioavailability (reaches systemic circulation) ([2]; oral Dronabinol): 6-20%
- time to peak plasma concentrations after dosing ([2]; oral Dronabinol): 2 to 4 h
- bioavailability ([2]; oral intake of synthetic Δ9-THC capsules): 6-20%

SMILES: CCCCCc1cc(O)c2c(c1)OC(C)(C)[C@@H]1CCC(C)=C[C@@H]21 [Δ9-THC, Δ9-tetrahydrocannabinol]
- decrease of Δ9-THC content of the marijuana biomass [3]: about 32%

SMILES: CCCCCc1cc(O)c2c(c1)OC(C)(C)[C@@H]1CC=C(C)C[C@@H]21 [Δ-8-THC, Δ8-tetrahydrocannabinol]
- psychoactivity relative to THC [1]: slightly less active
